Measurements from US20170226552A1, “METHODS FOR MODULATING PROTEIN GLY[…] OF R[…] THERAPEUTICS USING COBALT” (AbbVie Inc., priority 2014, published 2017).

Legend:
Type in all cases: cell-based, Chinese Hamster
[1] = tested on: Cell Line 2 (CHO cell line expressing DVD1); experiment: Cell Line 2 shake flask fedbatch culture: harvest titer of DVD 1 (Poros A HPLC)
Method: (§1) Two recombinant Chinese Hamster Ovary (CHO) cell lines expressing two different recombinant glycoproteins were evaluated in 2 different culture vessels (shaker flasks and 3 L laboratory scale bioreactors). Cell Line 1 expressed humanized Antibody 1, and Cell Line 2 expressed Dual Variable Domain Immunoglobulin 1 (DVD1). Antibody 1 was an IgG1 glycoprotein, and DVD1 was an immunoglobulin glycoprotein with two variable domains as documented previously (Wu C. et al., (2007) Nat Biotechnol 25(11):1290-7).
(§2) Both cells lines were of CHO DUX-B11 origin based on a dhfr (dihydrofolate reductase) expression system. All cultures utilized the same chemically defined basal media (CDBM), and chemically-defined feed media (CDFM), except Cell Linel utilized a CDFM that was enriched at a 50% higher relative concentration. Each of the experimental conditions were supplemented with cobalt chloride (Sigma-Aldrich, St. Louis, Mo.) to evaluate its potential impact on the resulting N-glycan oligosaccharide profile. In preparation of the cultures, the cell lines were expanded through separate seed train inoculums to generate enough cell biomass for inoculation of multiple cultures. Process conditions utilized during the cultures were similar between each experimental condition and the respective non-cobalt supplemented control condition (Table 1).
(§3) Antibody titers were measured from crude cell culture harvests on a Poros A™ (Life Technologies, Carlsbad, Calif.) affinity column using an HPLC system operating with a low pH, step elution gradient with detection at 280 nm. Absolute concentrations were assigned with respect to reference standard calibration curves.

[2] = tested on: Cell Line 1 (CHO cell line expressing Antibody 1); experiment: Cell Line 1 3 L laboratory-scale bioreactor culture: cell culture performance (VCD, viability, glucose, lactate, osmolality); conditions: Cell Line 1, 3 L bioreactor, 50 μM CoCl2
Method: as §1, §2
(§4) Viable cell density (VCD) and cell viability values were measured through trypan blue exclusion via Cedex automated cell counters (Roche Applied Science, Indianapolis, Ind.), glucose and lactate values were measured with a ABL-805 (Radiometer Medical, Denmark) blood gas analyzer. Offline pH, dissolved oxygen (DO), and pCO2 measurements were also performed with a ABL-805 (Radiometer Medical, Denmark) blood gas analyzer. Osmolality was measured on a Multi-Osmette 2430 osmometer (Precision Systems, Natick, Mass.).
3 L scale-down model bioreactors were utilized to verify the impact of CoCl2 on the resulting protein glycosylation profiles in Cell Line 1. Cell culture process performance indicators were monitored and measured throughout the respective cultures. Viable cell density, cell viability, harvest titer, and harvest N-glycan oligosaccharide data was measured and reported. FIG. 4 highlights the cell culture performance results observed through the use of 50 μM CoCl2 targeted supplementation into the CDBM and CDFM. Similar to the shake flask results, there was a modest drop in the viable cell density profile (FIG. 4A), but no change in the viability profile in the 50 μM CoCl2 supplemented culture (FIG. 4B). […] Similar to the shake flask results using 50 μM CoCl2, there was a nominal drop in the final harvest titer with the cobalt supplemented culture achieving a final harvest titer 10% below that of the unsupplemented control (FIG. 4F).

[3] = tested on: Cell Line 1 (CHO cell line expressing Antibody 1); experiment: Cell Line 1 3 L laboratory-scale bioreactor culture: N-glycan oligosaccharide profile of Antibody 1
Method: as §1
(§5) Both cells lines were of CHO DUX-B11 origin based on a dhfr (dihydrofolate reductase) expression system. […]
(§6) Approximately 200 μg of Protein A purified samples from Cell Lines 1 and 2 were treated with N-glycanase at 37° C. for an overnight duration to remove the N-glycans from the protein. […] Following the derivatization step, the excess dye was removed using clean up cartridges and the samples were analyzed using normal phase HPLC with fluorescent detection. […] The labeled glycans were detected using a fluorescence detector with an excitation wavelength of 330 nm and an emission wavelength of 420 nm.
(§7) 3 L scale-down model bioreactors were utilized to verify the impact of CoCl2 on the resulting protein glycosylation profiles in Cell Line 1. Cell culture process performance indicators were monitored and measured throughout the respective cultures. […]

[4] = tested on: Cell Line 1 (CHO cell line expressing Antibody 1); experiment: Cell Line 1 3 L laboratory-scale bioreactor culture: harvest titer of Antibody 1; conditions: Cell Line 1, 3 L bioreactor, 50 μM CoCl2
Method: as §1, §5
Antibody titers were measured from crude cell culture harvests on a Poros A™ (Life Technologies, Carlsbad, Calif.) affinity column using an HPLC system operating with a low pH, step elution gradient with detection at 280 nm. […]
as §7, with “cultures. Viable cell density, cell viability, harvest titer, and harvest N-glycan oligosaccharide data was measured and reported.” for “cultures.”

[5] = tested on: Cell Line 2 (CHO cell line expressing DVD1); experiment: Cell Line 2 shake flask fedbatch culture: N-glycan oligosaccharide profile of DVD1
Method: as §1, §2
Purified antibodies subjected to additional analytical characterization were purified using MabSelect™ Protein A (GE Healthcare, Piscataway, N.J.) using a low pH, step elution gradient, followed by buffer exchange using Spin Concentrator X UF columns (Corning Lifesciences, Tewksbury, Mass.), or equivalent, according to the manufacturer's recommended procedure.
Approximately 200 μg of Protein A purified samples from Cell Lines 1 and 2 were treated with N-glycanase at 37° C. for an overnight duration to remove the N-glycans from the protein. The protein was precipitated and the supernatant was taken for subsequent chemical derivatization of the reducing end of the released glycans with 2-aminobenzamide (2-AB) dye. Following the derivatization step, the excess dye was removed using clean up cartridges and the samples were analyzed using normal phase HPLC with fluorescent detection. Mobile phase A was 100% acetonitrile and mobile phase B was 50 mM ammonium formate at pH 4.4. The glycans were eluted from a polyamide column (Prozyme, Hayward, Calif.) using a shallow gradient. The labeled glycans were detected using a fluorescence detector with an excitation wavelength of 330 nm and an emission wavelength of 420 nm.

[6] = tested on: Cell Line 2 (CHO cell line expressing DVD1); experiment: Cell Line 2 shake flask fedbatch culture: viable cell density and cell viability (trypan blue exclusion)
Method: as §1, §2, §4

[7] = tested on: Cell Line 1 (CHO cell line expressing Antibody 1); experiment: Cell Line 1 shake flask fedbatch culture: N-glycan oligosaccharide profile of Antibody 1
Method: as §1
as §2, with “1). […]” for “1).”
as §6

[8] = tested on: Cell Line 1 (CHO cell line expressing Antibody 1); experiment: Cell Line 1 shake flask fedbatch culture: harvest titer of Antibody 1 (Poros A HPLC)
Method: as §1, §2, §3

[9] = tested on: Cell Line 1 (CHO cell line expressing Antibody 1); experiment: Cell Line 1 shake flask fedbatch culture: viable cell density and cell viability (trypan blue exclusion)
Method: as §1, §2, §4

[10] = Cell Line 2, shake flask, 100 μM cobalt
[11] = Cell Line 2, shake flask, 1-100 μM CoCl2

Q: Which results are given for `[Cl-].[Cl-].[Co+2]` [CoCl2, cobalt (II) chloride]?
A: concentration up to which there was a negligible impact on recombinant protein productivity ([1]; Cell Line 2): 5 µM; decrease in productivity (harvest titer of DVD 1) vs control ([1]; Cell Line 2, shake flask, 25 μM cobalt): 20%; decrease in productivity (harvest titer of DVD 1) vs control ([1]; Cell Line 2, shake flask, 50 μM cobalt): 35%; decrease in productivity (harvest titer of DVD 1) vs control [1, 10]: 47%; impact on recombinant antibody productivity (harvest titer of DVD 1) ([1]; Cell Line 2, shake flask, 1 and 5 μM cobalt): negligible impact; glucose levels in the culture media vs unsupplemented control over time [2]: approximately similar; higher lactate concentration in culture media vs unsupplemented control [2]: ≤ 0.5 g/L; osmolality levels vs unsupplemented control [2]: slightly elevated; viability profile vs unsupplemented control [2]: no change; viable cell density profile vs unsupplemented control [2]: modest drop; increase in NA1F species vs unsupplemented control ([3]; Cell Line 1, 3 L bioreactor, 50 μM CoCl2): approximately 8%; maximum absolute percentage increase in galactosylated N-glycans relative to the unsupplemented control ([3]; Cell Line 1, 3 L scale bioreactors): 8%; final harvest titer below that of the unsupplemented control [4]: 10%; increase in NA1F glycans vs unsupplemented control [5, 10]: 6.2%; change in relative abundance of NGA2F-GlcNAc vs unsupplemented control [5, 11]: statistically significant decreases; change in relative abundance of high mannose glycans vs unsupplemented control [5, 11]: statistically significant decreases; change in NA2F species vs unsupplemented control ([5]; Cell Line 2, shake flask, 1-100 μM CoCl2, much lower relative amount than NA1F): increased; maximum absolute percentage increase in galactosylated N-glycans relative to the unsupplemented control ([5]; Cell Line 2, shaker flask cultures): 6%; concentration up to which there was a negligible impact on cell growth ([6]; Cell Line 2): 25 µM; peak VCD compared to the control ([6]; Cell Line 2, shake flask, 1, 5, and 25 μM): approximately similar; peak VCD ([6]; Cell Line 2, shake flask, cobalt 50 μM in CDBM and CDFM): approximately 10.6×10^6 cells/mL; peak VCD ([6]; Cell Line 2, shake flask, cobalt 100 μM in CDBM and CDFM): ~6.7×10^6 cells/mL; cell viability over time and at harvest ([6]; Cell Line 2, shake flask, higher cobalt media concentrations, after Day 6): higher cell viability; change in relative abundance of NGA2F-GlcNAc vs unsupplemented control ([7]; 1-100 μM CoCl2): statistically significant decreases; change in NA2F species vs unsupplemented control ([7]; 1-100 μM CoCl2, much lower relative amount than NA1F): increased; change in NA1F species vs unsupplemented control ([7]; concentration-dependent, 1-100 μM CoCl2): increase; concentration up to which there was a negligible impact on recombinant protein productivity ([8]; Cell Line 1): 50 µM; drop in productivity (harvest titer of Antibody 1) vs control ([8]; Cell Line 1, shake flask, 100 μM cobalt): 21%; impact on recombinant antibody productivity (harvest titer of Antibody 1) ([8]; Cell Line 1, shake flask, 1, 5, 25, and 50 μM cobalt): negligible impact; concentration up to which there was a negligible impact on cell growth ([9]; Cell Line 1): 50 µM; peak VCD compared to the control ([9]; Cell Line 1, shake flask, 1, 5, and 25 μM): approximately similar; peak VCD ([9]; Cell Line 1, shake flask, cobalt 50 μM in CDBM and CDFM): approximately 9.4×10^6 cells/mL; peak VCD ([9]; Cell Line 1, shake flask, cobalt 100 μM in CDBM and CDFM): ~7.0×10^6 cells/mL; cell viability at harvest compared to the unsupplemented control ([9]; Cell Line 1, shake flask, each cobalt concentration evaluated (1-100 μM), harvest Day 14): slightly higher cell viability
